Key:
[1] = tested on: KB (human nasopharyngeal carcinoma) cell line; assay: Cytotoxicity against KB cell line; format: cell-based
[2] = tested on: LoVo (human colon-carcinoma) cell line; assay: Cytotoxicity against LoVo cell line; format: cell-based
[3] = tested on: murine leukemia (L1210 or P388), murine solid tumor, human solid tumor and low malignancy fibroblast (LML) cells; details: for Differential in Zone Units, Corbett Assay: μg/disk as for E3; for Type of Cytotoxicity, Corbett Assay: μg/disk: 1 12.5, 2 25, 3 25, 4 20, 5 2.9, 6 250, 8 30, 5-FU 2.5, VP-16 5, taxol 0.2, ^c selective against drug-sensitive and drug-resistant cell lines, ^d drug-sensitive cell lines only
[4] = tested on: Colon 38 (colon adenocarcinoma #38); details: Exp # 1560; SC Colon 38; 8 inj. IV; total dose 10.3 mg/kg
Method: (§1) Gross log kill is defined as T-C/3.2 Td where T is the median time in days for the tumors of the treated group to reach 750 mg, C is the median time in days for the tumors of the control group to reach 750 mg, and Td is the tumor volume doubling time.

H125 Human Adenosq-lung = details: Exp # 1823; SC H125 Human Adenosq-lung, SCID mice; 8 inj. IV; total dose 14.4 mg/kg
Method: as §1

[5] = tested on: murine and human tumors implanted in mice
Method: as §1

strains of Cryptococcus = details: found by researchers at Merck; cited from earlier work
MX-1 Human Breast = assay: In vivo activity, SC MX-1 tumor; details: Exp # 1806; SC MX-1 Human Breast, SCID mice; 8 inj. IV; total dose 12 mg/kg
Method: as §1

M17/0 (Adr. Sens.) = assay: In vivo activity, SC M17/0 tumor; details: Exp # 1833; SC M17/0 (Adr. Sens.); 5 inj. IV; total dose 5.4 mg/kg
Method: as §1

LNCaP Human Prostate = assay: In vivo activity, SC LNCaP tumor; details: Exp # 1841, 6 inj. IV, total dose 6.5 mg/kg
Method: as §1

[6] = tested on: Human Sm Cell L. DMS273 SCID; assay: In vivo activity, SC DMS273 tumor; details: Exp # 1596, 6 inj. IV, total dose 7.3 mg/kg
Method: as §1

[7] = tested on: Colon 51 (colon adenocarcinoma #51); assay: In vivo activity, SC Colon 51 tumor; details: Exp # 1636, 7 inj. IV, total dose 28.1 mg/kg
Method: as §1

Mam 16/C (mammary #16/C) = assay: In vivo activity, SC Mam 16/C tumor; details: Exp # 1720, 5 inj. IV, total dose 13.2 mg/kg
Method: as §1

[8] = tested on: SKOV3 (human ovarian carcinoma) cell line; assay: Cytotoxicity against SKOV3 cell line; details: Table 2
[9] = tested on: Mam 16/Taxol (taxol-resistant mammary #16/C/RP); assay: In vivo activity, SC Mam 16/Taxol tumor; details: Exp # 1733, 5 inj. IV, total dose 16.5 mg/kg
Method: as §1

[10] = tested on: A-10 rat aortic smooth muscle cells; format: cell-based; details: A-10 cells
Method: A-10 cells were grown to near-confluency on glass coverslips in BME/10% FBS. Compounds in PBS were added to the indicated final concentrations and cells were incubated for an additional 24 hours. For the staining of microtubules and intermediate filaments, the cells were fixed with cold methanol and incubated with PBS containing 10% calf serum to block nonspecific binding sites. Cells were then incubated at 37° C. for 60 min with either monoclonal anti-p-tubulin or with monoclonal anti-vimentin at dilutions recommended by the manufacturer. Bound primary antibodies were subsequently visualized by a 45-minute incubation with fluorescein-conjugated rabbit antimouse IgG. The coverslips were mounted on microscope slides and the fluorescence patterns were examined and photographed using a Zeiss Photomicroscope Ill equipped with epifluorescence optics for fluorescein. […] PBS containing 100 nM TRITC-phalloidin was then added and the mixture was allowed to incubate for 45 min at 37° C. The cells were washed rapidly three times with PBS before the coverslips were mounted and immediately photographed as described above.
After 24 hours, microtubules and vimentin intermediate filaments were visualized by indirect immunofluorescence and microfilaments were stained using TRITC-phalloidin. The morphological effects of each drug were examined.
After 24 hours, microtubule organization was examined by immunofluorescence as described above.
The cells were then washed and incubated in drug-free medium for periods of 1 hour or 24 hours.

[11] = tested on: SKOV3 cells (human ovarian carcinoma); assay: Cell proliferation assay (SRB staining), SKOV3 cells; format: cell-based; details: SKOV3 cells treated 24 hours with IC50 doses, then drug-free medium
[12] = 24 hours, 2 μM cytochalasin B, 100 nM vinblastine or 10 nM cryptophycin compounds

In the case of `COc1ccc(C[C@H]2NC(=O)/C=C/C[C@@H]([C@H](C)[C@H]3O[C@@H]3c3ccccc3)OC(=O)[C@H](CC(C)C)OC(=O)[C@H](C)CNC2=O)cc1Cl` [Cryptophycin 1], the “KB IC50” value ([1]; Table 1) is reported as 0.005 ng/mL, the “KB IC50” value ([1]; Table 2) is reported as 0.0025 ng/mL and the “LoVo IC50” value ([2]; Table 1) is reported as 0.003 ng/mL. The “LoVo IC50” value ([2]; Table 2) was 0.001 ng/mL, the “Differential in Zone Units, Corbett Assay” value [3] was greater than 400 Zone Units and the “Type of Cytotoxicity, Corbett Assay” value [3] was “E/T”. The Cures [4] was 0/5, the “Log Kill” value [4] was 1.5 and the T/C [4] was 6%. The “% Body Wt. Loss at Nadir” value (H125 Human Adenosq-lung) was -15%, the Cures (H125 Human Adenosq-lung) was 0/5 and the “Log Kill” value (H125 Human Adenosq-lung) was 1.1. The T/C (H125 Human Adenosq-lung) was 9%, the dead (H125 Human Adenosq-lung) was 1/5 and the “tumor burden T/C” value ([5]; five early stage murine tumors (colon #38, #51, taxol-sensitive and taxol-resistant mammary #16/C/RP, pancreatic #03) and MX-1 breast, H125 lung in SCID mice) was “less than 10%”. For the same molecule, the “lethal toxicity observed during testing” value ([5]; in vivo testing) was “attributed to leucopenia”, the “activity against strains of Cryptococcus” value (strains of Cryptococcus) was “very active against strains of Cryptococcus” and the “% Body Wt. Loss at Nadir” value (MX-1 Human Breast) was -3%. The Cures (MX-1 Human Breast) was 0/5, the “Log Kill” value (MX-1 Human Breast) was 2.0 and the T/C (MX-1 Human Breast) was 3%. The “% Body Wt. Loss at Nadir” value (M17/0 (Adr. Sens.)) was -10%, the “Log Kill” value (M17/0 (Adr. Sens.)) was less than 1 and the T/C (M17/0 (Adr. Sens.)) was 23%. The “% Body Wt. Loss at Nadir” value (LNCaP Human Prostate) was -6%, the T/C (LNCaP Human Prostate) was 26% and the “% Body Wt. Loss at Nadir” value [6] was 0%. The Cures [6] was 0/5, the “Log Kill” value [6] was less than 1 and the T/C [6] was 27%. For the same molecule, the “% Body Wt. Loss at Nadir” value [7] was -11%, the “Log Kill” value [7] was 1.3 and the T/C [7] was 7%. For the same molecule, the “% Body Wt. Loss at Nadir” value (Mam 16/C (mammary #16/C)) was -1%, the Cures (Mam 16/C (mammary #16/C)) was 0/5 and the “Log Kill” value (Mam 16/C (mammary #16/C)) was 1.4. For the same molecule, the T/C (Mam 16/C (mammary #16/C)) was 5%, the “SKOV3 IC50” value [8] was 0.026 ng/mL and the “% Body Wt. Loss at Nadir” value [9] was 0%. For the same molecule, the “Log Kill” value [9] was 1.8 and the T/C [9] was 2%.
With `C=C1[C@@H](C)[C@H]2[C@H](Cc3ccccc3)NC(=O)[C@]23OC(=O)/C=C/[C@H](O)CCC[C@@H](C)C/C=C/[C@H]3[C@@H]1O` [Cytochalasin B, cytochalasin B] the effect on microtubules [10, 12] was “did not affect the distribution of either microtubules or intermediate filaments” and the “effect on vimentin intermediate filaments” value [10, 12] was “did not affect the distribution of either microtubules or intermediate filaments”.
In the case of `CC(=O)O[C@H]1C(=O)[C@@]2(C)[C@H]([C@H](OC(=O)c3ccccc3)[C@]3(O)C[C@H](OC(=O)[C@H](O)[C@@H](NC(=O)c4ccccc4)c4ccccc4)C(C)=C1C3(C)C)[C@]1(OC(C)=O)CO[C@@H]1C[C@@H]2O` [taxol, reference compound], the “increase in cell number in the 24 hours following removal of the drug” value [11] is reported as 0.2- to 0.4 fold, the “Differential in Zone Units, Corbett Assay” value [3] is reported as no less than 400 Zone Units and the “Type of Cytotoxicity, Corbett Assay” value [3] is reported as “M/H/T”.
In the case of `CC[C@]1(O)C[C@@H]2CN(CCc3c([nH]c4ccccc34)[C@@](C(=O)OC)(c3cc4c(cc3OC)N(C)[C@H]3[C@@](O)(C(=O)OC)[C@H](OC(C)=O)[C@]5(CC)C=CCN6CC[C@]43[C@@H]65)C2)C1` [vinblastine], the “increase in cell number in the 24 hours following removal of the drug” value [11] is reported as “approximately 3 fold”, the “reversibility of microtubule depolymerization after removal of drug” value ([10]; 100 nM vinblastine or 10 nM cryptophycins for 24 hr, then drug-free medium 1 hour or 24 hours) is reported as “complete morphological recovery by 24 hour” and the “microtubule depolymerization after taxol pretreatment” value ([10]; 3 hours 10 μM taxol, then 100 nM vinblastine or 10 nM cryptophycin compound, 24 hours) is reported as “pretreatment with taxol prevented microtubule depolymerization in response to vinblastine”. For the same molecule, the effect on microfilaments [10, 12] was “Neither compound affected microfilament organization” and the “effect on vimentin intermediate filaments” value [10, 12] was “vimentin intermediate filaments collapsed”.

From patent publication US5955423A (priority 1995, dated 1999)
